Patent publication US9446061B2, “Composition containing antibiotics and lysophosphatidylcholine for boosting immunity or treatment of bacterial infections” (priority 2011, dated 2016)

Tests used:
[1] = tested on: CPA-CLP sepsis mouse model; test: Effects of LPC, LPC isomers, Xigris and DW286aa on mortalities/survivabilities in CPA-CLP sepsis mouse model (SEP009); single i.v. 6 hrs after CLP; assay type: in vivo
Description: CPA is well known as an immunosuppressive agent. […] Then, the abdomen was closed following the general procedure.
Then, body weight and mortality changes were observed.
In the Sham and CLP control groups, 10 ml/kg of only sterile physiological saline was single intravenously dosed.

blood WBC = test: Blood WBC numbers and differential counts in CPA-treated mice; assay type: in vivo, ICR mice; settings: LPC 1, DW286 0.5, Mix 0.75 mg/kg
Description: Blood were collected at sacrifice of CPA-treated model from vena cava and total blood leukocyte numbers were calculated using counting chamber, diluting pipette and Türk solution as dilution solution. All numbers were calculated as ×10^3/mm^3. In addition, cell numbers of lymphocytes, eosinophils, neutrophils, monocytes and basophils were calculated among 100 total leukocytes in smear blood samples stained with Giemsa.

[2] = tested on: thymic CD3+, CD4+, CD8+ and TNF-α+ cells; test: Immunohistochemistry of thymus (cortex and medulla) in CPA-treated mice; assay type: in vivo, ICR mice
Description: After deparraffinized, CD3 epitope retrievals were conducted in 10 mM Tris-1 mM EDTA Buffer (pH 9.0), CD4 and CD8 in 1 mM EDTA Buffer (pH 8.0), and TNF-α in 10 mM Citrate Buffer (pH 6.0) as previous methods. Primary anti-antibodies used in the invention were as following table.
The water bath with a staining dish, containing a buffer, was preheated until the temperature reached 95-100. The staining dish was placed at room temperature and the slides were cooled for 20 minutes. After epitope retrivals, sections were immunostained as following steps
First, the sections were incubated with methanol and 0.3% H2O2 for 30 min to block endogenous peroxidase activity at room temperature, and then rinsed three times in 0.01M phosphate buffered saline (PBS; pH 7.2) for 3 times. Then, the sections were incubated with the normal horse serum blocking solution (Vector Lab. Inc., CA, USA., dilution 1:100) for 1 hr at room temperature in a humidity chamber, to block non-specific binding of immunoglobulin, and then rinsed three times in 0.01M PBS. The sections were incubated with four types of primary antisera for 12 hrs at 4 in a humidity chamber, and then rinsed three times in 0.01M PBS. The sections were incubated with universal biotinylated secondary antibody for 1 hr at room temperature in a humidity chamber, and then rinsed three times in 0.01M PBS. The sections were incubated with ABC reagents (Vectastain Elite ABC Kit, Vector Lab. Inc., CA, USA. Dilution 1:50) for 1 hr at room temperature in a humidity chamber, and then rinsed three times in 0.01M PBS. The sections were incubated in the peroxidase substrate kit (Vector Lab. Inc., CA) for 30 seconds at room temperature, and then rinsed three times in 0.01M PBS. The sections were counterstained with the Mayer's hematoxylin solution, and then rinsed in running tap water for 30 minutes. The sections were dehydrated through 95% ethanol for 2 min and 100% ethanol for […], and then rinsed in xylene for 2 hrs. After that, the sections were observed using a cover slip with permanent mounting medium under the light microscope (Zeiss, Germany).
Histomorphometry—Among 1000 splenic or thymic cells, the numbers (N) of immunoreactive cells (CD3+, CD4+, CD8+, and TNF-α+) were observed as N/1000 splenocytes or thymocytes using automated image analysis. In thymus, the counts were conducted in the both cortex and medulla separately.

[3] = tested on: bone marrow polychromatic erythrocytes; test: Bone marrow MNPCE and PCE/(PCE+NCE) in CPA-treated mice; settings: LPC 1, DW286 0.5, Mix 0.75 mg/kg
Description: (§1) In Intact control animals, equal volume of saline was only dosed instead of CPA with same methods.
In brief, bone marrow cells were collected from aforementioned femur in 3 ml of inactivated fetal bovine serum (GIBCO BRL, USA), centrifuged, and smeared on slide. Preparations were dried, and fixed by submerging in absolute methanol (for 10˜20 min). Fixed slides were stained as follow:
Slides were randomly coded and examined under×1000 magnification by two different experts. Small round or oval shaped bodies, size of which ranging about ⅕ to 1/20 of diameter of PCE, were counted as micronuclei. Attention was given to discriminate micronuclei from artifacts. Results were expressed as the number of MNPCEs in 1000 PCEs. Mean number of MNPCE±S.D. was calculated for each treatment group.
(§2) Appropriate doses of candidate materials were dissolved in 5% human serum albumin, and subcutaneously dosed at 10 ml/kg (of body weight), 4 times 12-hr intervals from 6 hrs after CLP or 24 hrs after last CPA-dosing, respectively. In the INTACT, CPA, or CPA-CLP control groups, an equal volume of 5% human serum albumin was dosed by the same procedure.

[4] = Body weight of CPA-treated mice (Example 9); s.c. 4 times 12-hr intervals from 24 hrs after last CPA-dosing; settings: LPC 1, DW286 0.5, Mix 0.75 mg/kg
Description: In the INTACT control group, an equal volume of physiological saline was dosed instead of CPA by the same method.
as §1
In CPA-CLP model, body weight and mortalities were measured once a day for 5 days with automatic electronic balances (Sartorius Co., Ltd., USA), once a day for 2 days in CPA-treated model. All animals were overnight fasted at CPA dosing, CLP or initial dosing to reduce differences from feeding. In addition, body weight gains were calculated as follows:
CPA-Treat Model: Body weight at sacrifice—at initial dosing (2 days)
To find suitable dosing regime of LPC and DW286AA combination during the development of new therapeutic agents against sepsis, evaluation was conducted by using CPA-CLP— and CPA-induced immunosuppressive mice. […] Then, mortalities, changes in thymus and spleen weights, changes in white blood cell (WBC) number, and changes in thymic and splenic CD3+, CD4+, CD8+, and TNF-α+ cell numbers, were evaluated together with changes in bone marrow polychromatic erythrocytes contain micronuclei (MNPCE) number.
as §2

[5] = LPC, LPC18:0, LPC18:1, LPA 5 mpk, Xigris 0.4 mpk, DW286aa 10 mpk, 1st CPA treat
[6] = LPC, LPC18:0, LPC18:1, LPA 5 mpk, Xigris 0.4 mpk, DW286aa 10 mpk, 2nd CPA treat
[7] = LPC, LPC18:0, LPC18:1, LPA 5 mpk, Xigris 0.4 mpk, DW286aa 10 mpk, At CLP (day 0)
[8] = LPC, LPC18:0, LPC18:1, LPA 5 mpk, Xigris 0.4 mpk, DW286aa 10 mpk, Day 1
[9] = LPC, LPC18:0, LPC18:1, LPA 5 mpk, Xigris 0.4 mpk, DW286aa 10 mpk, Day 2
[10] = LPC, LPC18:0, LPC18:1, LPA 5 mpk, Xigris 0.4 mpk, DW286aa 10 mpk, Day 3
[11] = LPC, LPC18:0, LPC18:1, LPA 5 mpk, Xigris 0.4 mpk, DW286aa 10 mpk, Day 4
[12] = LPC, LPC18:0, LPC18:1, LPA 5 mpk, Xigris 0.4 mpk, DW286aa 10 mpk, Day 5
[13] = LPC, LPC18:0, LPC18:1, LPA 5 mpk, Xigris 0.4 mpk, DW286aa 10 mpk, Day 6
[14] = LPC, LPC18:0, LPC18:1, LPA 5 mpk, Xigris 0.4 mpk, DW286aa 10 mpk, Day 7
[15] = LPC, LPC18:0, LPC18:1, LPA 5 mpk, Xigris 0.4 mpk, DW286aa 10 mpk, Day 8
[16] = LPC, LPC18:0, LPC18:1, LPA 5 mpk, Xigris 0.4 mpk, DW286aa 10 mpk, Day 9
[17] = LPC, LPC18:0, LPC18:1, LPA 5 mpk, Xigris 0.4 mpk, DW286aa 10 mpk, Day 10
[18] = LPC, LPC18:0, LPC18:1, LPA 5 mpk, Xigris 0.4 mpk, DW286aa 10 mpk, Total
[19] = Xigris 2 mpk, DW286aa 20 mpk, 1st CPA treat
[20] = Xigris 2 mpk, DW286aa 20 mpk, 2nd CPA treat
[21] = Xigris 2 mpk, DW286aa 20 mpk, At CLP (day 0)
[22] = Xigris 2 mpk, DW286aa 20 mpk, Day 1
[23] = Xigris 2 mpk, DW286aa 20 mpk, Day 2
[24] = Xigris 2 mpk, DW286aa 20 mpk, Day 3
[25] = Xigris 2 mpk, DW286aa 20 mpk, Day 4
[26] = Xigris 2 mpk, DW286aa 20 mpk, Day 5
[27] = Xigris 2 mpk, DW286aa 20 mpk, Day 6
[28] = Xigris 2 mpk, DW286aa 20 mpk, Day 7
[29] = Xigris 2 mpk, DW286aa 20 mpk, Day 8
[30] = Xigris 2 mpk, DW286aa 20 mpk, Day 9
[31] = Xigris 2 mpk, DW286aa 20 mpk, Day 10
[32] = Xigris 2 mpk, DW286aa 20 mpk, Total
[33] = LPC 1, DW286 0.5, Mix 0.75 mg/kg
[34] = thymus cortex, CPA-treated mice, Mean ± S.D., n = 9
[35] = thymus medulla, CPA-treated mice, Mean ± S.D., n = 9

CON=C1CN(c2nc3c(cc2F)c(=O)c(C(=O)O)cn3C2CC2)CC1(C)CN.Cl (stereo not shown) [DW286aa, 7-[3-(aminomethyl)-4-(methoxyimino)-3-methyltetrahydro-1H-1-pyrrolyl]-1-cyclopropyl-6-fluoro-4-oxo-1,4-dihydro[1,8]naphthyridine-3-carboxylic acid hydrochloric acid salt]
Mortalities [1, 5]: 0
survivabilities [1, 5]: 100%
Mortalities [1, 6]: 0
survivabilities [1, 6]: 100%
Mortalities [1, 7]: 0
survivabilities [1, 7]: 100%
Mortalities [1, 8]: 1
survivabilities [1, 8]: 90%
Mortalities [1, 9]: 2
survivabilities [1, 9]: 70%
Mortalities [1, 10]: 0
survivabilities [1, 10]: 70%
Mortalities [1, 11]: 0
survivabilities [1, 11]: 70%
Mortalities [1, 12]: 0
survivabilities [1, 12]: 70%
Mortalities [1, 13]: 0
survivabilities [1, 13]: 70%
Mortalities [1, 14]: 2
survivabilities [1, 14]: 50%
Mortalities [1, 15]: 1
survivabilities [1, 15]: 40%
Mortalities [1, 16]: 1
survivabilities [1, 16]: 30%
Mortalities [1, 17]: 0
survivabilities [1, 17]: 30%
Mortalities [1, 18]: 7
survivabilities [1, 18]: 30%
Mortalities [1, 19]: 0
survivabilities [1, 19]: 100%
Mortalities [1, 20]: 0
survivabilities [1, 20]: 100%
Mortalities [1, 21]: 0
survivabilities [1, 21]: 100%
Mortalities [1, 22]: 0
survivabilities [1, 22]: 100%
Mortalities [1, 23]: 1
survivabilities [1, 23]: 90%
Mortalities [1, 24]: 1
survivabilities [1, 24]: 80%
Mortalities [1, 25]: 0
survivabilities [1, 25]: 80%
Mortalities [1, 26]: 0
survivabilities [1, 26]: 80%
Mortalities [1, 27]: 2
survivabilities [1, 27]: 60%
Mortalities [1, 28]: 1
survivabilities [1, 28]: 50%
Mortalities [1, 29]: 0
survivabilities [1, 29]: 50%
Mortalities [1, 30]: 1
survivabilities [1, 30]: 40%
Mortalities [1, 31]: 1
survivabilities [1, 31]: 30%
Mortalities [1, 32]: 7
survivabilities [1, 32]: 30%
blood total WBC numbers, change compared to CPA control (blood WBC): −11.31%
ratio of lymphocytes, change compared to CPA control (blood WBC): −23.56%
ratio of monocytes, change compared to CPA control (blood WBC): 13.43%
ratio of neutrophils, change compared to CPA control (blood WBC): −1.09%
Total WBC (blood WBC; blood at sacrifice): 0.41 ± 0.19 ×10^3/mm^3
WBC differentials: Basophils (blood WBC; blood at sacrifice): 0.89 ± 0.78%
WBC differentials: Eosinophils (blood WBC; blood at sacrifice): 0.22 ± 0.44%
WBC differentials: Lymphocytes (blood WBC; blood at sacrifice): 14.56 ± 9.75 %
WBC differentials: Monocytes (blood WBC; blood at sacrifice): 42.78 ± 17.33 %
WBC differentials: Neutrophils (blood WBC; blood at sacrifice): 41.56 ± 10.64 %
numbers of thymic cortex CD3+ cells, change compared to CPA control [2, 33]: −9.16%
numbers of thymic cortex CD4+ cells, change compared to CPA control [2, 33]: 21.74%
numbers of thymic cortex CD8+ cells, change compared to CPA control [2, 33]: 33.33%
numbers of thymic medulla CD3+ cells, change compared to CPA control [2, 33]: −33.33%
numbers of thymic medulla CD4+ cells, change compared to CPA control [2, 33]: 27.27%
numbers of thymic medulla CD8+ cells, change compared to CPA control [2, 33]: −22.22%
thymic cortex TNF-α+ cells, change compared to CPA control [2, 33]: −13.040%
thymic medulla TNF-α+ cells, change compared to CPA control [2, 33]: 0.00%
CD3+ cells, Thymus: Cortex (IHC-Histomorphometry) [2, 34]: 165.33 N/1000 splenocytes or thymocytes
CD4+ cells, Thymus: Cortex (IHC-Histomorphometry) [2, 34]: 3.11 N/1000 splenocytes or thymocytes
CD8+ cells, Thymus: Cortex (IHC-Histomorphometry) [2, 34]: 4.00 N/1000 splenocytes or thymocytes
TNF-α+ cells, Thymus: Cortex (IHC-Histomorphometry) [2, 34]: 2.22 N/1000 splenocytes or thymocytes
CD3+ cells, Thymus: Medulla (IHC-Histomorphometry) [2, 35]: 0.22 N/1000 splenocytes or thymocytes
CD4+ cells, Thymus: Medulla (IHC-Histomorphometry) [2, 35]: 1.78 N/1000 splenocytes or thymocytes
CD8+ cells, Thymus: Medulla (IHC-Histomorphometry) [2, 35]: 1.56 N/1000 splenocytes or thymocytes
TNF-α+ cells, Thymus: Medulla (IHC-Histomorphometry) [2, 35]: 0.00 N/1000 splenocytes or thymocytes
MNPCE numbers, change compared to CPA control [3]: −10.85%
PCE/(PCE+NCE), change compared to CPA control [3]: −14.79%
NCE ([3]; among 500 erythrocytes): 379.67 ± 17.07
PCE ([3]; among 500 erythrocytes): 120.33 ± 17.07
PCE/(NCE + PCE) ([3]; among 500 erythrocytes): 0.24 ± 0.03
% MNPCE ([3]; among 1000 PCEs): 2.56 ± 0.57 %
Body weight ([4]; 1 day after second CPA-dosing): 37.46 ± 1.96 g
Body weight ([4]; 2 days after second CPA-dosing): 38.61 ± 1.95 g
Body weight ([4]; At Dosing (overnight fasted)): 33.02 ± 1.95 g
Body weight ([4]; At First CPA dosing (overnight fasted)): 36.84 ± 1.83 g
Body weight gains during 2 days after dosing [4]: 5.59 ± 1.03 g
body weight (gains) change compared to the CPA control group [4]: −1.37%
